Read-outs that look alike come from different tables or passages of the source.
Columns and labels:
VLA-4 = biological target: VLA-4; set-up: method as in PMID 18534032; details: cited from earlier work
U937 cells [1] = assay: MultiCyt 4-Plex apoptosis assay; assay type: cell-based, human; details: Homo sapiens, U-937, 24 h
Method: Apoptosis was determined using MultiCyt® 4-Plex Apoptosis Screening Kit (IntelliCyt, cat. 90053). The kit provides four different apoptosis endpoints that include effector caspases 3 and 7 activation, phosphatidylserine surface expression, mitochondrial membrane depolarization and cell membrane integrity. […] Cell membrane damage is detected by the uptake of a proprietary DNA intercalating agent analogous to 7-aminoactinomycin D.
384-well plates (Greiner 784201), pre-loaded with 5 μL cRPMI were stamped using a pintool with 100 nl of DMSO-solubilized compounds from the 100-fold concentrated stock solution. Next, 5 μL U937 cells (2 × 10^6/ml in cRPMI) were added to wells and mixed, and plates were foil-sealed. Compounds (Table 1) were tested in dose response at final concentrations ranging from 15.2 nM to 100 μM (1% DMSO final). Vehicle (DMSO) was used as a negative control. After 24 h incubation under culture conditions, the IntelliCyt MultiCyt 4-Plex Apoptosis Screening Kit was used according to manufacturer's protocol. The data were acquired using iQue Screener Platform (IntelliCyt). Singlet cell populations were analyzed for individual measures of apoptosis, and gates were set based on control histograms.

697 = assay: CellTiter-Glo cell viability; assay type: cell-based; details: Homo sapiens; overnight, n = 6, ± SEM; read-out: Compound EC50, 697 (cell viability)
Method: (§1) Cell viability was determined with the CellTiter-Glo® Luminescent Cell Viability Assay (Promega). Greiner 655083 had 100 μL cRPMI +/− 4×10^4 cells/well, and dose response curves of compounds ranged from 100 μM to 1.53 nM (1% DMSO). Wells with DMSO-only served as negative controls. Samples were incubated overnight, and the assay was completed according to the manufacturer's protocol. Plates were analyzed using a Victor^3V™ 1420 Multilabel Counter (Perkin Elmer).

RS4;11 = assay: CellTiter-Glo cell viability; assay type: cell-based; details: Homo sapiens, overnight, n = 6, ± SEM, read-out: Compound EC50, RS4;11 (cell viability)
Method: as §1

Sup B15 = assay: CellTiter-Glo cell viability; assay type: cell-based; details: Homo sapiens, overnight, n = 6, ± SEM, read-out: Compound EC50, Sup B15 (cell viability)
Method: as §1

U937 cells [2] = assay: CellTiter-Glo cell viability; assay type: cell-based; details: Homo sapiens, U-937; overnight, n = 8, ± SEM, fit top = 100, bottom = 0, hill slope = −1; read-out: Compound EC50, U937 (cell viability)
Method: as §1

normal human PBMCs = assay: CellTiter-Glo cell viability; assay type: cell-based; details: PBMC, overnight, n = 6, ± SEM, read-out: Compound EC50, PBMCs (cell viability)
Method: Healthy PBMCs were obtained from volunteers. Mononuclear cells were purified using Mono-Poly resolving medium (MP Biomedicals, cat. 091698049) according to manufacturer's instructions. PBMCs were resuspended in cRPMI and kept on ice prior to use.
as §1

B-ALL cell lines [3] = assay: CellTiter-Glo cell viability, all B-ALL cell lines together; assay type: cell-based, human; details: for EC50: Homo sapiens, mean of converged EC50s of six B-ALL lines, read-out: Compound EC50, Mean B-ALL (cell viability); for Sensitivity of B-ALL lines compared with U937 cells: cell viability, overnight
Method: as §1

[4] = system: primary B-ALL patient samples; assay: CellTiter-Glo cell viability of primary ALL patient samples ex vivo; assay type: cell-based, human; details: for EC50: Homo sapiens
Method: Bone marrow samples were acquired at diagnosis from pediatric B-ALL patients. Mononuclear cells were enriched by centrifugation in Ficoll-Paque (GE Healthcare, cat. 17-1440-02) and aliquoted for storage in liquid nitrogen until use. Samples were thawed in a 37°C water bath, resuspended in 20% FBS cRPMI, and centrifuged to remove freezing medium. Cells were resuspended in conditioned medium (DMEM, 10% FBS, 50 U/ml penicillin-streptomycin, 2 mM L-glutamine) from HS-5 stromal cell cultures.
as §1
For primary ALL patient samples, media consisted of 50% cRPMI, 50% conditioned DMEM from HS-5 stromal cell cultures and compounds. Cell densities ranged from 28,000-68,000 cells/well, and plates were foil-sealed prior to incubation.

[5] = set-up: method as in as printed in each cell; details: previously reported; cited from earlier work
U937 cells [6] = assay: F-cAMP efflux assay in U937 cells (screen and dose response); assay type: cell-based, human; details: for Outcome of screen for inhibitors of cAMP efflux after dose-response validation: screen at 10 μM, 51 hits retested in dose-response
Method: (§2) Cells were loaded with F-cAMP as described. Briefly, cells were resuspended in a hypertonic solution containing 10% polyethylene glycol 1000, 0.5 M sucrose, and 250 μM F-cAMP in cRPMI without FBS, incubated 10 min at room temperature, washed, and then resuspended in hypotonic solution (60% cRPMI, 40% sterile water) for 2 min at room temperature to complete F-cAMP loading. Cells were resuspended in cRPMI and equilibrated for 2 h under normal culture conditions.
(§3) Samples were evaluated using Accuri C6 or BD FACScan flow cytometers (Becton Dickinson (BD)).
Liquid handling was accomplished with a Biomek FX Multichannel system (Beckman-Coulter, Fullerton, CA, USA) and/or Biotek Multiflo system (Winooski, VT, USA). F-cAMP-loaded U937 cells (2000/well) were seeded into 384-well polypropylene plates (Greiner Bio-One 784201, Monroe, NC, USA). Cells were treated with compounds (10 μM final concentration) from the Prestwick Chemical Library (Illkirch, France) or […] Collection (MicroSource, Gaylordsville, CT, USA) delivered by pintool (V&P Scientific, San Diego, CA), at a final DMSO concentration of 1%. Plates were foil-sealed with AlumaSeal 384™ (Excel Scientific, Victorville, CA, USA), and incubated inverted overnight. Sample plates were analyzed by CyAn flow cytometers (Beckman-Coulter) configured with HyperCyt high-throughput auto-sampler systems (IntelliCyt, Albuquerque, NM, USA) using 488 nm excitation to assess FL-1 (530/40) MFI levels.
Data were analyzed with HyperView software (IntelliCyt) and time-gated to determine data from each well. Wells with ≥ 50 events were evaluated for FL-1 MFI values. Samples with MFI values ≥ 2 standard deviations above the plate mean negative control values were considered “hit” compounds.
To validate sample data and decrease the number of false-positive hits, compounds were assayed in a high-throughput dose response assay. Plates were set up as in the HTS, with the exception that the plate formats contained 10-well dose responses for each hit compound, at final concentrations ranging from 30 μM to 4 nM.
The dose response data were normalized for percent response based on sample FL-1 MFI values in comparison to untreated F-cAMP-loaded cells kept at 4°C overnight or at time = 0, and were fitted by GraphPad Prism 5 software (GraphPad Software, La Jolla, CA, USA) for sigmoidal dose response with constrained hill slope = 1.

U937 cells [7] = assay: Cell viability by 7-AAD exclusion with or without KH7; assay type: cell-based, human; details: overnight, 6 μM KH7, 7-AAD staining
Method: Cells treated with ICE and control samples were incubated with 1 μg/ml of 7-AAD for 20-60 minutes at 4°C on a rotator in the dark, and analyzed by flow cytometry according to manufacturer instructions. Gates were set on 7-AAD negative and positive events based on histograms. Percent of 7-AAD negative events is shown.

Reh = assay: CellTiter-Glo cell viability; assay type: cell-based; details: Homo sapiens, overnight, n = 6, ± SEM, read-out: Compound EC50, Reh (cell viability)
Method: as §1

B-ALL cell lines [8] = assay: F-cAMP efflux in B-ALL cell lines with MK-571; assay type: cell-based, human; details: 37°C
Method: as §2, §3

[9] = mean of converged EC50s, read-out: Compound EC50, Means (of the apoptosis endpoints)
[10] = n = 4, ± SEM, read-out: Compound EC50, Cell membrane damage
[11] = n = 4, ± SEM, read-out: Compound EC50, Mitochondrial depolarization
[12] = mean of converged EC50s of six patient samples, read-out: Compound EC50 (Sample means), cell viability
[13] = primary B-ALL sample, duplicate, ± SEM, read-out: Compound EC50 (Patient no. 2), cell viability
[14] = primary B-ALL sample, duplicate, ± SEM, read-out: Compound EC50 (Patient no. 3), cell viability
[15] = primary B-ALL sample, duplicate, ± SEM, read-out: Compound EC50 (Patient no. 5), cell viability
[16] = primary B-ALL sample, duplicate, ± SEM, read-out: Compound EC50 (Patient no. 6), cell viability
[17] = primary B-ALL sample, duplicate, ± SEM, read-out: Compound EC50 (Patient no. 1), cell viability

In the case of “4-((N'-2-methylphenyl)ureido)-phenylacetyl-L-leucyl-L-aspartyl-L-valyl-L-prolyl-L-alanyl-L-alanyl-L-lysine-FITC [LDV-FITC]”, the Kd (VLA-4; high affinity state, read-out: Kd for physiologically activated VLA-4) is given as 0.001 to 0.002 µM and the Kd (VLA-4; low affinity state, read-out: Kd for binding to resting VLA-4) is given as about 0.012 µM.

For `C[C@H]1[C@@H](O)O[C@@H]2O[C@@]3(C)CC[C@H]4[C@H](C)CC[C@@H]1[C@@]24OO3` [Dihydroartemisinin], the EC50 (U937 cells [1]; [9]) was 16.4 µM, the EC50 (U937 cells [1]; [10]) was 23.7 ± 19.4 µM and the EC50 (U937 cells [1]; [11]) was 9.21 ± 7.52 µM. The EC50 697 was 55.5 ± 16.8 µM, the EC50 (RS4;11) was 26.2 ± 7.94 µM and the EC50 (Sup B15) was 141 ± 49.5 µM. For the same compound, the EC50 (U937 cells [2]) was 1.32 ± 0.58 µM, the EC50 (normal human PBMCs) was 128 ± 34.2 µM and the EC50 (B-ALL cell lines [3]) was 74.4 µM. For the same compound, the “Sensitivity of B-ALL lines compared with U937 cells” value (B-ALL cell lines [3]) was “decreased sensitivity”, the EC50 [4, 12] was 46.6 µM and the EC50 [4, 13] was 47.5 ± 12.2 µM. The EC50 [4, 14] was 83.2 ± 74.2 µM, the EC50 [4, 15] was 11.5 ± 5.02 µM and the EC50 [4, 16] was 44.1 ± 32.2 µM. The “Cell viability vs. vehicle treated sample at lower concentrations” value ([4]; samples from patients no. 1 and no. 5) was “significant increase in cell viability” and the Anticancer effects [5] was “↓VEGF expression & angiogenesis [99, 101, 102]; ↓cyclin B, CDC25 [87]”.

For `O=C1c2ccc(O)c(O)c2C(=O)c2c(O)ccc(O)c21` [quinalizarin], the “Outcome of screen for inhibitors of cAMP efflux after dose-response validation” value (U937 cells [6]) was “potentially active”.

`C[C@H]1[C@H](OC(=O)CCC(=O)O)O[C@@H]2O[C@@]3(C)CC[C@H]4[C@H](C)CC[C@@H]1[C@@]24OO3` [Artesunate] showed an EC50 (U937 cells [1]; [9]) of 24.6 µM, an EC50 (U937 cells [1]; n = 4, ± SEM, read-out: Compound EC50, Annexin-V +) of 29.5 ± 1.85 µM and an EC50 (U937 cells [1]; [10]) of 18.6 ± 1.89 µM. For the same compound, the EC50 (U937 cells [1]; [11]) was 25.7 ± 0.82 µM, the EC50 697 was 99.6 ± 27.7 µM and the EC50 (RS4;11) was 33.7 ± 10.6 µM. The EC50 (Sup B15) was 326 ± 88.5 µM, the EC50 (U937 cells [2]) was 7.99 ± 3.24 µM and the EC50 (normal human PBMCs) was 280 ± 91.4 µM. The EC50 (B-ALL cell lines [3]) was 153 µM, the “Sensitivity of B-ALL lines compared with U937 cells” value (B-ALL cell lines [3]) was “decreased sensitivity” and the EC50 [4, 12] was 84.6 µM. It also gave an EC50 [4, 17] of 116 ± 55.2 µM, an EC50 [4, 13] of 115 ± 22.7 µM and an EC50 [4, 14] of 66 ± 27.6 µM. The EC50 [4, 15] was 24.6 ± 12.2 µM, the EC50 [4, 16] was 100 ± 48.7 µM and the Anticancer effects [5] was “↓metastasis/migration [80, 83]; ↓VEGF expression/angiogenesis [70, 76, 80]; ↓cyclins B & D1, Cdks 2, 4, 6[70]; ↑p21, p27 [70]”. The “Potential mechanism(s) of action” value [5] was “↓NFκB & AP-1 activation [83, 130, 131]; ↓nitric oxide, cAMP-mediated, Wnt/β-catenin, PI3K/Akt signaling [81, 130, 131]; ↑ROS [70, 72, 78]”.

With `CC1=NCCc2c1[nH]c1cc(O)ccc21` [harmalol] the “Outcome of screen for inhibitors of cAMP efflux after dose-response validation” value (U937 cells [6]) was “potentially active”.

In the case of `C[C@@H]1CC[C@H]2[C@@H](C)C(=O)O[C@@H]3O[C@@]4(C)CC[C@@H]1[C@]32OO4` [artemisinin], the “Outcome of screen for inhibitors of cAMP efflux after dose-response validation” value (U937 cells [6]) is reported as “potentially active”.

In the case of `CC(Sc1nc2ccccc2[nH]1)C(=O)N/N=C/c1cc(Br)ccc1O` (stereo not shown) [KH7], the “Effect of KH7 on cell viability loss induced by ICE” value (U937 cells [7]) is reported as “significant protective effect”.

With `CN(C)C(=O)CCSC(SCCC(=O)O)c1cccc(/C=C/c2ccc3ccc(Cl)cc3n2)c1` (stereo not shown) [MK-571] the EC50 (U937 cells [6]; Homo sapiens, U-937, read-out: EC50 for cAMP efflux blocking, U937 cells loaded with F-cAMP, overnight, 37°C) was about 30 µM, the “Block of loss of F-cAMP probe fluorescence” value (U937 cells [6]; U937 cells, 24 h, 37°C) was “A significant part of this loss was blocked” and the EC50 697 was 126 ± 109 µM. The EC50 (Reh) was 226 ± 93.6 µM, the EC50 (Sup B15) was 144 ± 47.8 µM and the EC50 (U937 cells [2]) was 94.2 ± 35.5 µM. It also gave an EC50 (normal human PBMCs) of 157 ± 66.4 µM, an EC50 (B-ALL cell lines [3]) of 165 µM and an EC50 [4, 12] of 298 µM. For the same compound, the EC50 [4, 17] was 298 ± 140 µM, the “Active F-cAMP efflux in the presence of MK-571” value (B-ALL cell lines [8]; Group 1: Sup-B15 and MHH-Call3, overnight) was “blocked completely” and the “F-cAMP removed with MK-571” value (B-ALL cell lines [8]; Group 2: Reh and RS4;11, overnight, 75-80% without MK-571) was 30-40%. For the same compound, the “F-cAMP removed with MK-571” value (B-ALL cell lines [8]; Group 3: 697 and Nalm-6, overnight, > 90% without MK-571) was 60-70%.

Source: PMC5085131, “Cyclic AMP efflux inhibitors as potential therapeutic agents for leukemia” (Oncotarget, 2016)
